Experimental data: ChEMBL document CHEMBL4622904, “The discovery of azetidine-piperazine di-amides as potent, selective and reversible monoacylglycerol lipase (MAGL) inhibitors” (Bioorg Med Chem Lett, 2020)

How the values were obtained:
[1] = Drug concentration in brain of Sprague-Dawley rat at 10 mg/kg, po; format: ADME, organism-based; settings: in vivo, read-out: Ct
[2] = Oral bioavailability in monkey at 10 mg/kg; format: ADME, organism-based, Macaca mulatta; settings: rhesus monkey, in vivo
[3] = Drug concentration in blood of Sprague-Dawley rat at 30 mg/kg, po; format: ADME, organism-based; settings: in vivo, read-out: Ct
[4] = AUClast in monkey at 10 mg/kg, po; format: ADME, organism-based, Macaca mulatta; set-up: dose 10 mg/kg, time 0 - last, route oral; settings: rhesus monkey, in vivo
Rattus norvegicus [5] = assay: Reversal of complete freund's adjuvant-induced thermal hyperalgesia in Sprague-Dawley rat model assessed as increase in paw withdrawal latency time at 1 to 30 mg/kg, po pre-exposed to thermal stimuli followed by CFA injection and subsequent compound administration; format: functional
[6] = AUClast in rat at 10 mg/kg, po; format: ADME, organism-based; set-up: dose 10 mg/kg, route oral, time 0 - last; settings: in vivo
[7] = AUClast in dog at 10 mg/kg, po; format: ADME, organism-based, Canis lupus familiaris; set-up: dose 10 mg/kg, route oral, time 0 - last; settings: in vivo
[8] = target: T1, Cathepsin G (Homo sapiens) (UniProt P08311); assay: Inhibition of cathepsin G (unknown origin) at 10 uM relative to control
T1 sequence (whole entry): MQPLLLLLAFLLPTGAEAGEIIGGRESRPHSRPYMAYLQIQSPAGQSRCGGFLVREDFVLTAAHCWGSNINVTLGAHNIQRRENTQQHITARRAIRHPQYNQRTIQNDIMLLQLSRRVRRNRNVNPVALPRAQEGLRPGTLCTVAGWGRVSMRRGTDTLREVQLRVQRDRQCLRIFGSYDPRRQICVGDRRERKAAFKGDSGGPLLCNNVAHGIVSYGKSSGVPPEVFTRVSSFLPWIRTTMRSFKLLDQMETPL

[9] = Clearance in dog at 10 mg/kg, po; format: ADME, organism-based, Canis lupus familiaris; settings: in vivo
Rattus norvegicus [10] = assay: Reversal of complete freund's adjuvant-induced thermal hyperalgesia in Sprague-Dawley rat model assessed as increase in paw withdrawal latency time at 1 to 30 mg/kg, po pre-exposed to thermal stimuli followed by CFA injection and subsequent compound administration relative to control; format: functional
[11] = target: T2, Coagulation factor VII (Homo sapiens) (UniProt P08709); assay: Inhibition of factor 7a (unknown origin) at 10 uM relative to control
T2 sequence (whole entry): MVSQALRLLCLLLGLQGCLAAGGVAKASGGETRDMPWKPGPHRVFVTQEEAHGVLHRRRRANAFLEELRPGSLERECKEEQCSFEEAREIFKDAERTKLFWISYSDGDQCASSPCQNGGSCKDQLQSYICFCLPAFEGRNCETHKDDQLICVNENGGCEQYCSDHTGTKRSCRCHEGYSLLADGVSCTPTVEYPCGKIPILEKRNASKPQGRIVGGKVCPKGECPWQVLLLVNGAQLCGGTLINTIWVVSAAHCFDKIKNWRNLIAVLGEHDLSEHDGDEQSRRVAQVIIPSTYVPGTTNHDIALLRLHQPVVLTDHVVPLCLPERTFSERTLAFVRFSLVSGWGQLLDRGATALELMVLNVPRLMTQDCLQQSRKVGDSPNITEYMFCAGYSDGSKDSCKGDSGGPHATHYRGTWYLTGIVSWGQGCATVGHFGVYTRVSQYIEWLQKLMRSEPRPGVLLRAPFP

[12] = target: T3, Fatty-acid amide hydrolase 1 (Homo sapiens, UniProt O00519); assay: Inhibition of FAAH (unknown origin)
T3 sequence (O00519 whole entry): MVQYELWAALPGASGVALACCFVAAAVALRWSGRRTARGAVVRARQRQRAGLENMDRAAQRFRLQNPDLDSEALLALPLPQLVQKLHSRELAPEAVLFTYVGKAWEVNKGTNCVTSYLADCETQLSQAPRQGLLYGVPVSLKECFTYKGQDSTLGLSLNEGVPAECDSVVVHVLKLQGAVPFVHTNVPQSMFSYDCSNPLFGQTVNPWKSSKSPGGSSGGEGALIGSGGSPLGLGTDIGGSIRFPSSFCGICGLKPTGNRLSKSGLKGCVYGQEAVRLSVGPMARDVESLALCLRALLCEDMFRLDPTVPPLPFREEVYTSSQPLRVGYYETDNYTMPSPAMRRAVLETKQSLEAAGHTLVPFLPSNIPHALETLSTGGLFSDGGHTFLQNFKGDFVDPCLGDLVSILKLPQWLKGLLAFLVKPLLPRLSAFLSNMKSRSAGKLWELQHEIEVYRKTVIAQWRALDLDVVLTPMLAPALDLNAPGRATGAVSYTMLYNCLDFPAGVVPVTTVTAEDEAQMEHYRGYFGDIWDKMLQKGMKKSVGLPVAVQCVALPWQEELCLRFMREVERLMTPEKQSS

Rattus norvegicus [13] = assay: Effect on 2-AG level in brain of Sprague-Dawley rat 3 mg/kg, po (reference value: 11.96 nmol/g); format: functional
[14] = Drug concentration in brain of Sprague-Dawley rat at 3 mg/kg, po; format: ADME, organism-based; settings: in vivo, read-out: Ct
[15] = target: T4, Myeloblastin (Homo sapiens) (UniProt P24158); assay: Inhibition of proteinase 3 (unknown origin) at 10 uM relative to control
T4 sequence (whole entry): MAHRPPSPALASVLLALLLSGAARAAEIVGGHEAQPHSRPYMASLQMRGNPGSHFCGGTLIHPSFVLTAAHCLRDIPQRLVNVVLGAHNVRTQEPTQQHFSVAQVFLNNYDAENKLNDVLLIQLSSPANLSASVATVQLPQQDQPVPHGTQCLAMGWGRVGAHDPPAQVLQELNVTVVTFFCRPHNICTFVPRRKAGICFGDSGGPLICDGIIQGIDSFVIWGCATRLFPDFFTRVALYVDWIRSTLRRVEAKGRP

Rattus norvegicus [16] = assay: Effect on 2-AG level in brain of Sprague-Dawley rat 10 mg/kg, po (reference value: 11.96 nmol/g); format: functional
[17] = target: Urokinase-type plasminogen activator (Homo sapiens) (UniProt P00749); assay: Inhibition of urokinase (unknown origin) at 10 uM relative to control
[18] = target: Plasma kallikrein (Homo sapiens) (UniProt P03952); assay: Inhibition of kallikrein (unknown origin) at 10 uM relative to control
[19] = Drug concentration in blood of Sprague-Dawley rat at 1 mg/kg, po; format: ADME, organism-based; settings: in vivo, read-out: Ct
[20] = Clearance in rat at 10 mg/kg, po; format: ADME, organism-based; settings: in vivo
Cannabinoid receptor 1 = Cannabinoid receptor 1 (Homo sapiens, UniProt P21554); assay: Binding affinity to CB1 receptor (unknown origin); format: ADME
[21] = Drug concentration in blood of Sprague-Dawley rat at 3 mg/kg, po; format: ADME, organism-based; settings: in vivo, read-out: Ct
[22] = Clearance in monkey at 10 mg/kg, po; format: ADME, organism-based, Macaca mulatta; settings: rhesus monkey, in vivo
[23] = target: Chymotrypsin (Homo sapiens) (UniProt Q99895+P17538+P40313+Q6GPI1); assay: Inhibition of chymotrypsin (unknown origin) at 10 uM relative to control; format: protein assay
[24] = Volume of distribution at steady state in dog at 10 mg/kg, po; format: ADME, organism-based, Canis lupus familiaris; settings: in vivo
Trypsin (Homo sapiens) = Trypsin (Homo sapiens) (UniProt P07477+P07478+P35030); assay: Inhibition of trypsin (unknown origin) at 10 uM relative to control; format: protein assay
Bacteria = assay: Inhibition of bacterial streptokinase at 10 uM relative to control
[25] = Half life in dog at 10 mg/kg, po; format: ADME, organism-based, Canis lupus familiaris; settings: in vivo

Sequence of Plasma kallikrein (Homo sapiens) (P03952 20-390 limits assumed): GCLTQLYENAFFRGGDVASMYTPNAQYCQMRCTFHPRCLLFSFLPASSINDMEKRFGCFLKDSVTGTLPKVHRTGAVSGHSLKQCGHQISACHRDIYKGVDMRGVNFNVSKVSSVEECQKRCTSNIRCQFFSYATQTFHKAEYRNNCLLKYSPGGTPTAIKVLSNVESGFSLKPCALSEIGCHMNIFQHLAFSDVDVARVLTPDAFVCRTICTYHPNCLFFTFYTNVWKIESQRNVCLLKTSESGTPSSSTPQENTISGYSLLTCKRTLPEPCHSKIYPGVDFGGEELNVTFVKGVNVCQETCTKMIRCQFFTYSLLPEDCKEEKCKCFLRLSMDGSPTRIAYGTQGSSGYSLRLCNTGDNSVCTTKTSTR
Sequence of Plasma kallikrein (Homo sapiens) (P03952 391-638 limits assumed): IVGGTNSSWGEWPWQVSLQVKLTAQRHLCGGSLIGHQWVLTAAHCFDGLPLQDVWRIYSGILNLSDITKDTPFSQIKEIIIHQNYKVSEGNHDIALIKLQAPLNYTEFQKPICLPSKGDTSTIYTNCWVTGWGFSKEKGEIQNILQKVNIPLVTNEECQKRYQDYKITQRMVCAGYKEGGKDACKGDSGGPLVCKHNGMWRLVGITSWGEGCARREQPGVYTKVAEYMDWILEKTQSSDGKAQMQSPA
Sequence of Cannabinoid receptor 1 (P21554 whole entry): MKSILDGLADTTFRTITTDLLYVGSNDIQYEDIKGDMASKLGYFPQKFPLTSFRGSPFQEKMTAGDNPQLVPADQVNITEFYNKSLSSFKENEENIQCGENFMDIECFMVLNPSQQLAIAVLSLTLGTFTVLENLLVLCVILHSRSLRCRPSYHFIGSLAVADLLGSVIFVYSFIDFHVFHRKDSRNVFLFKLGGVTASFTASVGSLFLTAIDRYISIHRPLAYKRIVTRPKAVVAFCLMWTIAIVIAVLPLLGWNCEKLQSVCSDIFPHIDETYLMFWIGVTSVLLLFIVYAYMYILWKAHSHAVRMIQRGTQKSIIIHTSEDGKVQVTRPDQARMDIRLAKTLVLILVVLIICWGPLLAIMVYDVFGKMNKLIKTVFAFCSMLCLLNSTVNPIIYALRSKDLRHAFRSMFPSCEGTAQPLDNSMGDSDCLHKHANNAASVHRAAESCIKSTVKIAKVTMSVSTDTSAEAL

- concentration [1]: 668 nM
- bioavailability [2]: 82%
- concentration [3]: 3070 nM
- AUC(0-t) [4]: 33500 ng·h/mL
- AUC(0-t) [6]: 3730 ng·h/mL
- AUC(0-t) [7]: 33600 ng·h/mL
- inhibition [8]: 13%
- CL/F [9]: 4.35 mL/min/kg
- inhibition [11]: -5%
- IC50 [12]: 4 µM
- concentration [14]: 339 nM
- inhibition [15]: 7%
- inhibition [17]: 2%
- inhibition [18]: 4%
- concentration [19]: 24.9 nM
- CL/F [20]: 19.2 mL/min/kg
- IC50 (Cannabinoid receptor 1): > 10 µM
- concentration [21]: 135 nM
- CL/F [22]: 4.46 mL/min/kg
- inhibition [23]: -3%
- Vdss [24]: 0.56 L/kg
- inhibition (Trypsin (Homo sapiens)): -10%
- inhibition (Bacteria): 1%
- half-life [25]: 7.46 h
Structure (SMILES): O=C(c1ccc2c(ccn2-c2ccc(F)cc2)c1)N1CC(N2CCN(C(=O)c3nccs3)CC2)C1
- Time (Rattus norvegicus [5]): 100 min
- Activity (Rattus norvegicus [10]): 100%
- Activity (Rattus norvegicus [13]): 33.01 nmol/g
- Activity (Rattus norvegicus [16]): 46.43 nmol/g
